# Assay results from ChEMBL document CHEMBL4402559, “Structure-Based Design and Pharmacokinetic Optimization of Covalent Allosteric Inhibitors of the Mutant GTPase KRASG12C” (J Med Chem, 2020).
# Active and inactive are the calls of the source. The calls are words filed in the database; no cut-off is given here.
# Assays:
# [1] = Intrinsic clearance in human liver microsomes; type: ADME, Microsome; conditions: for microsomal CLint: liver microsomes, read-out: CLH
# [2] = Intrinsic clearance in rat hepatocytes assessed per 10^-6 cells; type: ADME, cell-based, Hepatocyte
# [3] = Distribution coefficient, log D of compound at pH 7.4; type: physicochemical; conditions: octanol/water
# GTPase KRas = GTPase KRas (Homo sapiens, UniProt P01116, G12C); experiment: Inhibition of GDP bound biotinylated human C-terminal Avi/His6-tagged KRAS G12C mutant (1 to 166 residues) expressed in Escherichia coli BL21 (DE3) assessed as reduction in SOS1-mediated GDP/GTP nucleotide exchange by preventing recognition between KRAS G12C mutant and Ras binding domain of N-terminal Avi/GST-tagged Raf-1 (51 to 149 residues) preincubated for 4 hrs followed by SOS1 and GTPgammaS addition by FRET assay
# [4] = system: GTPase KRas (Homo sapiens), P01116 [G12C]; experiment: Inhibition of KRAS G12C mutant expressed in human SW1573 cells assessed as […] at 1 uM measured after 6 hrs by TQ-UPLC/MS analysis relative to control; type: cell-based
# Lu-99 cell line [5] = experiment: Antiproliferative activity against human LU99 cells expressing KRAS G12C mutant assessed as cell growth inhibition cultured in soft agar medium containing compounds and supplemented with fresh medium for every 7 days by 3D soft agar proliferation assay; type: functional, cell-based
# [6] = Clearance in Han Wistar rat at 2 umol/kg, po or 1 umol/kg, iv; conditions: in vivo
# [7] = target: GTPase KRas (Homo sapiens) (UniProt P01116); experiment: Inhibition of wild type KRAS expressed in human PC9 cells assessed as […] at 1 uM measured after 6 hrs by TQ-UPLC/MS analysis; type: cell-based
# [8] = Efflux ratio of apparent permeability in human Caco2 cells at 10 uM at pH 7.4; type: ADME, cell-based; conditions: Caco-2, pH 7.4
# [9] = Volume of distribution at steady state in Han Wistar rat at 2 umol/kg, po or 1 umol/kg, iv; conditions: in vivo
# [10] = system: GTPase KRas (Homo sapiens), P01116 [UNDEFINED MUTATION]; experiment: Inhibition of KRas mutant expressed in human H2291 cells assessed as […] at 1 uM measured after 6 hrs by TQ-UPLC/MS analysis; type: cell-based
# [11] = system: GTPase KRas (Homo sapiens), P01116 [G12C]; experiment: Inhibition of KRAS G12C mutant expressed in human HCC44 cells assessed as […] at 1 uM measured after 6 hrs by TQ-UPLC/MS analysis relative to control; type: cell-based
# in vivo = conditions: Han Wistar, rat, po, 2 umol/kg
# [12] = GSH reactivity in PBS buffer assessed as half life at pH 7.4 and 37 degree C in presence of glutathione; type: physicochemical; conditions: PBS buffer with glutathione
# [13] = system: GTPase KRas (Homo sapiens), P01116 [G12C]; experiment: Inhibition of KRAS G12C mutant expressed in human H2122 cells assessed as […] at 1 uM measured after 6 hrs by TQ-UPLC/MS analysis relative to control; type: cell-based
# Lu-99 cell line [14] = experiment: Antiproliferative activity against human LU99 cells expressing KRAS G12C mutant assessed as cell growth inhibition measured after 5 days by sytox green dye staining based 2D proliferation assay; type: functional
# [15] = system: GTPase KRas (Homo sapiens), P01116 [G12C]; experiment: Inhibition of KRAS G12C mutant expressed in human H23 cells assessed as […] at 1 uM measured after 6 hrs by TQ-UPLC/MS analysis relative to control; type: cell-based
# SW1573 [16] = experiment: Antiproliferative activity against human SW1573 cells expressing KRAS G12C mutant assessed as cell growth inhibition cultured in soft agar medium containing compounds and supplemented with fresh medium for every 7 days by 3D soft agar proliferation assay; type: functional, cell-based
# [17] = system: GTPase KRas (Homo sapiens), P01116 [G12C]; experiment: Inhibition of KRAS G12C mutant expressed in human LU65 cells assessed as […] at 1 uM measured after 6 hrs by TQ-UPLC/MS analysis relative to control; type: cell-based
# [18] = system: GTPase KRas (Homo sapiens), P01116 [G12C]; experiment: Inhibition of KRAS G12C mutant in human H358 cells assessed as […] at 1 uM measured after 6 hrs by TQ-UPLC/MS analysis relative to control; type: cell-based
# [19] = system: GTPase KRas (Homo sapiens), P01116 [G12C]; experiment: Inhibition of KRAS G12C mutant expressed in human HOP62 cells assessed as […] at 1 uM measured after 6 hrs by TQ-UPLC/MS analysis relative to control; type: cell-based
# MIA PaCa-2 = experiment: Antitumor activity against human MIAPaCa2 cells harboring KRAS G12C mutant xenografted in orally dosed athymic NU-Fox1nu nude mouse assessed as tumor regression administered daily for 2 weeks and further treated for 3 weeks; type: functional, organism-based
# [20] = system: GTPase KRas (Homo sapiens), P01116 [G12C]; experiment: Inhibition of KRAS G12C mutant expressed in human H1373 cells assessed as […] at 1 uM measured after 6 hrs by TQ-UPLC/MS analysis relative to control; type: cell-based
# [21] = system: GTPase KRas (Homo sapiens), P01116 [G12C]; experiment: Inhibition of KRAS G12C mutant expressed in human Calu1 cells assessed as […] at 1 uM measured after 6 hrs by TQ-UPLC/MS analysis relative to control; type: cell-based
# Mus musculus = experiment: Decrease in DUSP6 mRNA level in tumor of athymic NU-Fox1nu mouse xenografted with human MIAPaca2 cells at 10 to 100 mg/kg, po qd measured at 3 to 24 hrs post-treatment by qRT-PCR analysis; type: functional, organism-based
# SW1573 [22] = experiment: Antiproliferative activity against human SW1573 cells harboring KRAS G12C mutant assessed as cell growth inhibition measured after 5 days by sytox green dye staining based 2D proliferation assay; type: functional
# [23] = system: GTPase KRas (Homo sapiens), P01116 [G12C]; experiment: Inhibition of KRAS G12C mutant expressed in human H1792 cells assessed as […] at 1 uM measured after 6 hrs by TQ-UPLC/MS analysis relative to control; type: cell-based
# [24] = system: GTPase KRas (Homo sapiens), P01116 [UNDEFINED MUTATION]; experiment: Inhibition of KRas mutant expressed in human A549 cells assessed as […] at 1 uM measured after 6 hrs by TQ-UPLC/MS analysis; type: cell-based
# [25] = system: GTPase KRas (Homo sapiens), P01116 [G12C]; experiment: Inhibition of KRAS G12C mutant expressed in human LU99 cells assessed as […] at 1 uM measured after 6 hrs by TQ-UPLC/MS analysis relative to control; type: cell-based
# [26] = system: GTPase KRas (Homo sapiens), P01116 [G12C]; experiment: Binding affinity to KRAS G12C mutant in human […] cell lysate assessed as trypsin-mediated biotinylated cysteine residues digestion by measuring reduction in protein level at 4 uM prelabeled with iodoacetamide desthiobiotin followed by compound treatment measured after 4 hrs by MS analysis relative to control; type: subcellular
smiles,measurement,setting,value
"C=CC(=O)N1CCN2c3c(cnc4c(C)c(-c5c(O)cccc5F)c(Cl)cc34)OC[C@H]2C1 (single isomer, unassigned; atropisomer)",microsomal CLint,[1],28 µL/min/mg
same,hepatocyte intrinsic clearance,[2],40 µL/min
same,logD,[3]; read-out: logD,3.8
"C=CC(=O)N1CCN2c3c(cnc4c(OC)c(-c5c(O)cccc5F)c(Cl)cc34)OC[C@H]2C1 (single isomer, unassigned; atropisomer 2)",microsomal CLint,[1],40 µL/min/mg
same,hepatocyte intrinsic clearance,[2],56 µL/min
same,IC50,GTPase KRas,70 nM
same,logD,[3]; read-out: logD,3
C=CC(=O)N1C[C@@H]2C(=O)N(C)c3cnc4c(F)c(-c5c(O)cccc5F)c(Cl)cc4c3N2C[C@H]1C,inhibition,[4],70%
same,growth inhibition (GI),Lu-99 cell line [5],inactive
same,microsomal CLint,[1],21 µL/min/mg
same,clearance,[6],4 mL/min/kg
same,inhibition,[7],inactive
same,efflux ratio at 10 µM,[8],1.1
same,hepatocyte intrinsic clearance,[2],11 µL/min
same,IC50,GTPase KRas,< 5 nM
same,Vd,[9],1 L/kg
same,inhibition,[10],inactive
same,inhibition,[11],79%
same,bioavailability,in vivo,94%
same,half-life,[12],334 min
same,inhibition,[13],74%
same,growth inhibition (GI),Lu-99 cell line [14],inactive
same,inhibition,[15],80%
same,growth inhibition (GI),SW1573 [16],inactive
same,inhibition,[17],84%
same,inhibition,[18],82%
same,inhibition,[19],89%
same,logD,[3]; read-out: logD,3.4
same,Activity,MIA PaCa-2,Dose-dependent effect
same,inhibition,[20],86%
same,inhibition,[21],73%
same,inhibition,Mus musculus,Active
same,growth inhibition (GI),SW1573 [22],inactive
same,inhibition,[23],75%
same,inhibition,[24],inactive
same,inhibition,[25],100%
same,fold change (FC),[26],> 2
"C=CC(=O)N1CCN2c3c(cnc4cc(-c5c(C)ccc6[nH]ncc56)c(Cl)cc34)OC[C@@H]2C1 (single isomer, unassigned; atropisomer 1)",Intrinsic clearance in human liver microsomes,[1],121 µL/min/mg
same,hepatocyte intrinsic clearance,[2],67 µL/min
same,IC50,GTPase KRas,8860 nM
same,logD,[3],4
C=CC(=O)N1CCN2c3c(cnc4cc(-c5c(O)cccc5F)c(Cl)cc34)N(C)C[C@H]2C1,microsomal CLint,[1],26 µL/min/mg
same,efflux ratio at 10 µM,[8],1.5
same,hepatocyte intrinsic clearance,[2],99 µL/min
same,logD,[3]; read-out: logD,4.1
C=CC(=O)N1CCN2c3c(cnc4cc(-c5c(O)cccc5F)c(Cl)cc34)NC[C@H]2C1,microsomal CLint,[1],18 µL/min/mg
same,efflux ratio at 10 µM,[8],1.4
same,hepatocyte intrinsic clearance,[2],17 µL/min
same,logD,[3]; read-out: logD,3.3
C=CC(=O)N1CCN2c3c(cnc4c(F)c(-c5c(O)cccc5F)c(Cl)cc34)N(C)C(=O)[C@H]2C1,microsomal CLint,[1],21 µL/min/mg
same,clearance,[6],6 mL/min/kg
same,efflux ratio at 10 µM,[8],1.5
same,hepatocyte intrinsic clearance,[2],10 µL/min
same,Vd,[9],0.8 L/kg
same,bioavailability,in vivo,56%
same,half-life,[12],929 min
same,logD,[3]; read-out: logD,2.9
"C=CC(=O)N1CCN2c3c(cnc4cc(-c5c(C)ccc6[nH]ncc56)c(Cl)cc34)OC[C@H]2C1 (single isomer, unassigned; atropisomer 2)",Intrinsic clearance in human liver microsomes,[1],46 µL/min/mg
same,hepatocyte intrinsic clearance,[2],65 µL/min
same,IC50,GTPase KRas,1380 nM
same,logD,[3],> 4.2
C=CC(=O)N1CCN2c3c(cnc4c(F)c(-c5c(O)cccc5F)c(Cl)cc34)OC[C@H]2C1 (atropisomer aR),microsomal CLint,[1],17 µL/min/mg
same,hepatocyte intrinsic clearance,[2],22 µL/min
same,IC50,GTPase KRas,16 nM
same,logD,[3]; read-out: logD,3.4
C=CC(=O)N1CCN2c3c(cnc4cc(-c5c(O)cccc5F)c(Cl)cc34)OC[C@H]2C1,microsomal CLint,[1],25 µL/min/mg
same,clearance,[6],35 mL/min/kg
same,efflux ratio at 10 µM,[8],0.5
same,hepatocyte intrinsic clearance,[2],32 µL/min
same,Vd,[9],1.2 L/kg
same,bioavailability,in vivo,64%
same,half-life,[12],416 min
same,logD,[3]; read-out: logD,3.6
